Results: PMC3914206

Key:
panel of 442 kinases [1] = target: T1, panel of 442 kinases (Homo sapiens, UniProt Q13470); format: binding; conditions: kinase TNK1; compound concentration 10 µM
T1 construct: purchased KINOMEscan
T1 sequence (Q13470 1-666): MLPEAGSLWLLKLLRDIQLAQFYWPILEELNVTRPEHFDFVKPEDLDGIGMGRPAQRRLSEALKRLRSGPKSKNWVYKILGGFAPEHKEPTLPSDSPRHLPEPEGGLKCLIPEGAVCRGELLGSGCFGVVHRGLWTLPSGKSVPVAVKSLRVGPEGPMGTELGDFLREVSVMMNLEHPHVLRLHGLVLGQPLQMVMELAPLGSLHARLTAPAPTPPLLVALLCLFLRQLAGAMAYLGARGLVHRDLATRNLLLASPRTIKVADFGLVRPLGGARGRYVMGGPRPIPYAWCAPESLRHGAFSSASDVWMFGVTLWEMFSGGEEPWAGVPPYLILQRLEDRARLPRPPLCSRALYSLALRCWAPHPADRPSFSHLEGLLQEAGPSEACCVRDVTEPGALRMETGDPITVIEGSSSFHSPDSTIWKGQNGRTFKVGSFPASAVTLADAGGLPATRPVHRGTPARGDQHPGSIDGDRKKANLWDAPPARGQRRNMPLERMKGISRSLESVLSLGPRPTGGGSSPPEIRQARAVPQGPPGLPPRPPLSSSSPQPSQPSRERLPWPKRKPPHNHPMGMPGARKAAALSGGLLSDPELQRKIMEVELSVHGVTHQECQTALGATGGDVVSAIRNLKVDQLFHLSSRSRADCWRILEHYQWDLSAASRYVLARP
From the text: (§1) We assessed the selectivity of members of this scaffold using the KINOMEscan methodology across a near comprehensive panel of 442 kinases [[18,27]].

panel of 442 kinases [2] = target: T2, panel of 442 kinases (Homo sapiens, UniProt P33981); format: binding; conditions: kinase TTK; compound concentration 10 µM
T2 construct: purchased KINOMEscan
T2 sequence (P33981 1-857): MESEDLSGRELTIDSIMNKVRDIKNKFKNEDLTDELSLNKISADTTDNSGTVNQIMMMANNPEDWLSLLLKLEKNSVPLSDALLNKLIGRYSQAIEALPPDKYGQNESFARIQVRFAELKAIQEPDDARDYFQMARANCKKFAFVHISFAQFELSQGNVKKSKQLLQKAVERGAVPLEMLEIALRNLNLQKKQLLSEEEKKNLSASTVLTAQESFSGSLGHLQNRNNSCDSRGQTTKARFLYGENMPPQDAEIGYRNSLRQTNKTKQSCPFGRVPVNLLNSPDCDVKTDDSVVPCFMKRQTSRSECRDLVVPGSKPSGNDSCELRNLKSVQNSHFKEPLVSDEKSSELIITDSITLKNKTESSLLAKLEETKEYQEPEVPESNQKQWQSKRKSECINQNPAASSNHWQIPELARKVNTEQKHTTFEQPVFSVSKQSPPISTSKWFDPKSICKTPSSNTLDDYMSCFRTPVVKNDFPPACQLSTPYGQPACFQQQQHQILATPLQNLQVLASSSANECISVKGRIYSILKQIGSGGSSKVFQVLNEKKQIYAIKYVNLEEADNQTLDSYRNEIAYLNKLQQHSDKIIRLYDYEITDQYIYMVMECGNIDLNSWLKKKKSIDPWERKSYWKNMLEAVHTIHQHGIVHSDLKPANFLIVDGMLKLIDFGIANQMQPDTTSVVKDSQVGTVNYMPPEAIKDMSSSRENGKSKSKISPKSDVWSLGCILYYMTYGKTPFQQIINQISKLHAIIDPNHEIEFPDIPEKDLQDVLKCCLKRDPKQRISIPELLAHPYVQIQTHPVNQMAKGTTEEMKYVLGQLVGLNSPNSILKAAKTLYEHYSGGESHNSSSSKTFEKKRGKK
From the text: as §1

SMILES: COc1cc(C(=O)N2CCC(N3CCN(C)CC3)CC2)ccc1Nc1ncc2c(n1)N(C)c1ccccc1C(=O)N2C [15 (LRRK2-IN-1)]
- % Ctrl, TNK1 (panel of 442 kinases [1]): 2.8 % Ctrl
- % Ctrl, TTK (panel of 442 kinases [2]): 28 % Ctrl

SMILES: COc1cc(C(=O)N2CCC(N3CCN(C)CC3)CC2)ccc1Nc1ncc2c(n1)N1CCc3cccc(c31)C(=O)N2C [Compound 24]
- % Ctrl, TNK1 (panel of 442 kinases [1]): 5 % Ctrl
- % Ctrl, TTK (panel of 442 kinases [2]): 46 % Ctrl

SMILES: COc1cc(C(=O)N2CCC(N3CCN(C)CC3)CC2)ccc1Nc1ncc2c(n1)N(C1CCCC1)c1ccccc1C(=O)N2C [Compound 25, 11-cyclopentyl-2-((2-methoxy-4-(4-(4-methylpiperazin-1-yl)piperidine-1-carbonyl)phenyl)amino)-5-methyl-5H-benzo[e]pyrimido[5,4-b][1,4]diazepin-6(11H)-one]
- % Ctrl, TNK1 (panel of 442 kinases [1]): 7.8 % Ctrl
- % Ctrl, TTK (panel of 442 kinases [2]): 94 % Ctrl

SMILES: CCOc1cc(C(=O)N2CCC(N3CCN(C)CC3)CC2)ccc1Nc1ncc2c(n1)N(C1CCCC1)c1ccccc1C(=O)N2C [Compound 26]
- % Ctrl, TNK1 (panel of 442 kinases [1]): 53 % Ctrl
- % Ctrl, TTK (panel of 442 kinases [2]): 49 % Ctrl
